Target: T1, ZrFsy1 (Zygosaccharomyces rouxii, UniProt C5DSI4)
T1 construct: gene ZYRO0C00374g; full length, 564 residues, C-terminal GFP tag, multicopy plasmid pZRS1-S (own promoter), expressed in S. cerevisiae hxt-null EBY.VW4000
T1 sequence (C5DSI4 1-564): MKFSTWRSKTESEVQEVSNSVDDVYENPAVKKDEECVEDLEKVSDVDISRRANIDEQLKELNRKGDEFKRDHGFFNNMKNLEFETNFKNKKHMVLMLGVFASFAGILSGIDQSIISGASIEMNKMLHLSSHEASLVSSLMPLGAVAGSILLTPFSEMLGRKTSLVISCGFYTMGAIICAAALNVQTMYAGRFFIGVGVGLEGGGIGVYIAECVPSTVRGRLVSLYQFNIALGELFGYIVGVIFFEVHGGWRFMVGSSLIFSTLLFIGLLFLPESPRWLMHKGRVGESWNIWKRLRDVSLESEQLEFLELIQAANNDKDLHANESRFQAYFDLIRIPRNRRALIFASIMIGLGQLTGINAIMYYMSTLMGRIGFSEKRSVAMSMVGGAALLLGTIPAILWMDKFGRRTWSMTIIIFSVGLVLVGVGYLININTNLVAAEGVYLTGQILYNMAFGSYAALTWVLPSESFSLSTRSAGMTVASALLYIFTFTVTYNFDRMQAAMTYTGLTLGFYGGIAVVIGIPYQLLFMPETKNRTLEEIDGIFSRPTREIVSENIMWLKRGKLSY
Assay: inhibition of [U-14C]fructose uptake; extracellular alkalinisation on sorbose pulse
Assay type: cell-based
Conditions: competitor of labelled fructose; 10 mM sorbose, 25 °C, pH 5 in the proton symport assay; D / L form not stated

With `OCC1(O)OC[C@H](O)[C@@H](O)[C@@H]1O` (stereo partly shown) [sorbose] the “inhibition of [U-14C]fructose uptake; extracellular alkalinisation on sorbose pu” value was “transport of radioactive fructose by ZrFsy1 was inhibited by sorbose but not by glucose”.

From paper PMC3699521, “ZrFsy1, a High-Affinity Fructose/H^+ Symporter from Fructophilic Yeast Zygosaccharomyces rouxii” (PLoS ONE, 2013)
